# From patent US20240207211A1, “COMPOSITION FOR PROMOTING BONE FORMATION OR TREATING BONE DISEASE BY ACTING ON OSTEOBLAST MITOCHONDRIA” (SEOUL NATIONAL UNIVERSITY R&DB FOUNDATION, priority 2021, published 2024)
# Experiments:
# Assay type in all cases: cell-based, mouse
# osteoblast mitochondria = experiment: Osteoblast fluorescence imaging of mitochondrial morphology (fission, donut-shaped mitochondria); conditions: osteoblasts, 5 days differentiation, siRNA 30 nM, plasmid 1 μg/mL, bongkrekic acid 40 μM; for formation of donut-shaped mitochondria (confocal images, FIGS. 1A to 1C) / mitochondrial fission (confocal images, FIGS. 1A to 1C): versus control; for mitochondrial fission (quantitative analysis, Zeiss Zen 3.1, FIGS. 1D and 1E) / number of donut-shaped mitochondria (quantitative analysis, FIGS. 1D and 1E): versus respective control
# Description: To confirm changes in the morphology of osteoblast mitochondria, transgenic mice were prepared to express green fluorescent protein (GFP) specifically in the mitochondrial matrix. Specifically, lgs1^CKI-mitoGFP/CKI-mitoGFP knock-in C57BL/6 female mice were provided by Jeremy Nathans (Johns Hopkins University School of Medicine, MD), Col1a1-Cre male mice were provided by the Korea Research Institute of Bioscience and Biotechnology, and Col1a1-Cre was prepared to be expressed in these mice using the 2.3 kb murine Col1a1 promoter. By mating the prepared C57BL/6 female transgenic mouse with the Col1a1-Cre male mouse, newborn transgenic mice (Col1a1-Cre; Igs1^CKI-mito-GFP/+) that conditionally express GFP only in the mitochondria of osteoblasts were prepared. All animal studies were approved by the Seoul National University Institutional Animal Care and Use Committees.
# The skull cells of the prepared transgenic mice that express GFP conditionally only in the mitochondria were treated with 0.25% trypsin (Gibco) for 10 minutes, incubated in 2 mg/mL type 2 collagenase (Worthington) for 30 minutes, and in fresh type 2 collagenase for another 60 minutes. The cells separated from the bone tissue were collected by centrifugation at 1300 rpm for 3 minutes, and the cells were placed on serum and centrifuged to remove debris. To separate living osteoblasts that express GFP in mitochondria, they were stained with 7AAD (Bio-Legend) for 10 minutes (only dead cells were stained) and a flow cytometry technique (Fluorescence-activated cell sorting, FACS) was used.
# The osteoblasts extracted in Example 1 were induced to be differentiated in a medium composed of alpha MEM (Minimum Essential Media, Hyclone) supplemented with 10% fetal bovine serum (Gibco) and 100 U/mL penicillin-streptomycin (Gibco) for 5 days. Specifically, the differentiation medium is composed of alpha MEM with 50 μg/mL ascorbic acid (Amreasco), 5 mM beta-glycerophosphate (Sigma), 10% fetal bovine serum (Gibco), and 100 U/mL penicillin-streptomycin (Gibco). Osteoblast differentiation was induced for 5 days.
# Short interfering RNA (siRNA) that inhibits the expression of the Opa1 (dynamin-like 120 kDa protein) gene, which induces mitochondrial fusion, and the Fis1 (Mitochondrial fission 1 protein) gene, which induces mitochondrial fission (siOpa1, siFis1, respectively) was transfected into 300,000 osteoblasts per 1 mL at 30 nM each at the same time as differentiation induction using Lipofectamine RNAiMAX Reagent (Invitrogen), and to increase mitochondrial fission, the pCMV-Fis1 plasmid (Korea Human Gene Bank) was transfected into 300,000 osteoblasts per mL at 1 μg/mL at the same time as differentiation induction using TransIT®-LT1 Transfection Reagent (Mirus) to overexpress the Fis1 gene. In addition, the osteoblasts prepared above were treated simultaneously with differentiation with Tris solution-based bongkrekic acid (Sigma, B6179, USA) at a concentration of 40 μM. As a control for the siRNA, osteoblasts were prepared by transfecting the control siRNA in substantially the same manner as the siRNA; as a control for the plasmid, osteoblasts were prepared by transfecting the pCMV-SPORT6 empty vector plasmid into which no gene was inserted in substantially the same manner as the pCMV-Fis1 plasmid; and as a control for the bongkrekic acid, osteoblasts treated with 0.01M Tris solution were prepared. The siRNAs were purchased from Bioneer, Korea and transfected using Lipofectamine RNAimax (Invitrogen, USA) according to the manufacturer's instructions, and specific information on the siRNAs is shown in Table 1 below.
# The pCMV-Fis1 plasmid containing full-length mouse Fis1 cDNA (ID: mMU002771) was purchased from the Korea Human Gene Bank, and was transfected into osteoblasts using TransIT-LT1 transfection reagent (Mirus Bio, USA) according to the manufacturer's instructions. […]
# Ibsp = experiment: qRT-PCR of osteogenic marker Ibsp in osteoblasts; conditions: 5 days differentiation, siRNA 30 nM, plasmid 1 μg/mL, bongkrekic acid 40 μM, normalized to 18S rRNA, versus respective control
# Description: (§1) The osteoblasts extracted in Example 1 were transfected with 30 nM of siOpa1, siFis1, and 1 μg/mL of pCMV-Fis1 plasmids, respectively, in substantially the same manner as in Example 2-1, and separate osteoblasts were treated with 40 μM bongkrekic acid, and additionally, the osteoblasts extracted in Example 1 were transfected with 30 nM siBax, which is an siRNA of Bax (Bcl-2-associated X), and 1 μg/mL pCMV-Bax plasmid (Korea Human Gene Bank, ID: mMU001857), respectively, and differentiation of the osteoblasts was induced for 5 days in a medium consisting of alpha MEM (Minimum Essential Media, Hyclone) supplemented with 10% fetal bovine serum (Gibco) and 100 U/mL of penicillin-streptomycin (Gibco) of Example 2-1. As a control for the siRNA, osteoblasts were prepared by transfecting the control siRNA of Example 2-1 in substantially the same manner as the siRNA; as a control for the plasmid, osteoblasts were prepared by transfecting the pCMV-SPORT6 empty vector plasmid into which no gene was inserted in substantially the same manner as the pCMV-Fis1 plasmid; and as a control for the bongkrekic acid, osteoblasts treated with 0.01M Tris solution were prepared.
# (§2) qRT-PCR was performed to evaluate the gene expression level of the osteoblasts that underwent ALP staining in Example 3-2. Total RNA was extracted from the cells using QIAzol Lysis Reagent (Qiagen, Germany) and RNeasy Mini Kit (Qiagen, Germany), and cDNA was prepared using PrimeScript RT Reagent Kit (Takara, Japan) according to the manufacturer's instructions. Quantitative RT-PCR was performed using TB Green Premix Ex Taq II (Takara, Japan) and StepOnePlus Real-Time PCR system (Applied Biosystems, USA). Relative gene expression was determined using standard 2(−ΔΔCt) calculations with normalization to 18S rRNA, and information on the primers used is specifically shown in Table 3 below.
# Alp1 = experiment: qRT-PCR of osteogenic marker Alp1 in osteoblasts; conditions: 5 days differentiation, siRNA 30 nM, plasmid 1 μg/mL, bongkrekic acid 40 μM, normalized to 18S rRNA, versus respective control
# Description: as §1, §2
# osteoblasts = experiment: Alkaline phosphatase (ALP) staining of differentiation-induced osteoblasts; conditions: 5 days differentiation, siRNA 30 nM, plasmid 1 μg/mL, bongkrekic acid 40 μM, versus respective control
# Description: as §1
# To confirm the osteogenic activity of the osteoblasts differentiation-induced in Example 3-1, staining of alkaline phosphatase (ALP), an osteogenic marker, was performed and observed. Specifically, 1 mg of Naphthol AS-MX phosphate (Sigma) was dissolved in 100 μL of N,N-dimethylformamide (Sigma), then 2 mL of 0.1% Fast blue BB salt (Sigma) solution was added and ALP staining was performed at 37° C. for 30 minutes. Osteogenic activity was confirmed by the intensity of staining, and it was evaluated that the darker the staining, the higher the expression of ALP.
Molecule,"formation of donut-shaped mitochondria (confocal images, FIGS. 1A to 1C) (osteoblast mitochondria)","mitochondrial fission (confocal images, FIGS. 1A to 1C) (osteoblast mitochondria)","mitochondrial fission (quantitative analysis, Zeiss Zen 3.1, FIGS. 1D and 1E) (osteoblast mitochondria)","number of donut-shaped mitochondria (quantitative analysis, FIGS. 1D and 1E) (osteoblast mitochondria)",expression of Ibsp (qRT-PCR) (Ibsp),expression of Alp1 (qRT-PCR) (Alp1),degree of ALP staining (osteogenic activity) (osteoblasts)
"siOpa1: siRNA inhibiting expression of the Opa1 gene; Bioneer ID 74143-1, SEQ ID NO 1 and 2 (chain 1 GUGUUCACAACGAAACCAAUU; chain 2 UUGGUUUCGUUGUGAACACUU; chemistry not given here)",increased compared to the control,increased compared to the control,significantly increased,significantly increased,significantly increased,significantly increased,stronger compared to the respective controls
"siBax: siRNA of Bax (Bcl-2-associated X); Bioneer ID 12028-1, SEQ ID NO 5 and 6 (chain 1 GCUGCAGAGGAUGAUUGCUTT; chain 2 AGCAAUCAUCCUCUGCAGCTT; chemistry not given here)",,,,,,,weaker compared to the respective controls
CO[C@H](C/C=C\C=C\CC/C=C/C[C@H](C)/C=C/C(=C\C(=O)O)CC(=O)O)/C(C)=C\C=C(/C)C(=O)O [bongkrekic acid],increased compared to the control,increased compared to the control,significantly increased,significantly increased,significantly increased,significantly increased,stronger compared to the respective controls
"siFis1: siRNA inhibiting expression of the Fis1 gene; Bioneer ID 66437-1, SEQ ID NO 3 and 4 (chain 1 CUGAUUGAUAAGGCCAUGAUU; chain 2 UCAUGGCCUUAUCAAUCAGUU; chemistry not given here)",significantly reduced compared to the control,significantly reduced compared to the control,significantly reduced,significantly reduced,significantly decreased,significantly decreased,weaker compared to the respective controls
